Reference: article PMC10686828, “DMSOP-cleaving enzymes are diverse and widely distributed in marine microorganisms” (Nature Microbiology, 2023)

Columns and labels:
[1] = test system: T1, DddL; experiment: HPLC of acrylate, initial rates, non-linear fit; type: biochemical; settings: pH 8, 30 °C
T1 construct: pET-22b, C-terminal His tag, E. coli BL21(DE3)

[2] = molecular target: T2, DddY (Acinetobacter bereziniae) (Acinetobacter bereziniae, UniProt N8X9V6); experiment: HPLC of DMSO and acrylate; type: biochemical; settings: 5 mM DMSOP, pH 8.0, 30 °C
T2 construct: gene F963_02809; pET-22b, C-terminal His tag, E. coli BL21(DE3); Ni-NTA and gel filtration
T2 sequence (N8X9V6 22-401 limits assumed): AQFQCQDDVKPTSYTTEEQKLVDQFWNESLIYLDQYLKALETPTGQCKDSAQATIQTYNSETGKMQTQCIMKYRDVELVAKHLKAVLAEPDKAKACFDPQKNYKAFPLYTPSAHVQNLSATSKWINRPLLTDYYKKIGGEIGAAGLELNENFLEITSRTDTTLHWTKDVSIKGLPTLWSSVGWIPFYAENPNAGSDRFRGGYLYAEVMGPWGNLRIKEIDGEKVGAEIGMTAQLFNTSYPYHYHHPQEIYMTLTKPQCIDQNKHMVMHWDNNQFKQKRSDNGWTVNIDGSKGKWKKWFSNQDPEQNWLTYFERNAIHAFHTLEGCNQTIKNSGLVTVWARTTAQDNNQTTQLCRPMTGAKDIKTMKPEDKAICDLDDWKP

`C[S+](C)(=O)CCC(=O)[O-]` [DMSOP] was tested, and the Km [1] was 65 ± 10.9 mM and the “HPLC of DMSO and acrylate” value [2] was “purified DddY proteins yielded DMSO and acrylate from DMSOP”.
